Assay results published in ChEMBL document CHEMBL4145688, “Potent and Orally Bioavailable Inverse Agonists of RORγt Resulting from Structure-Based Design” (J Med Chem, 2018).
Values after ≈ are worked out from the molar mass of the structure shown.

Legend:
[1] = Oral absorption in Han Wistar rat at 1 mg/kg; assay type: ADME, organism-based; details: in vivo, read-out: Fabs
[2] = Stability in pH 8 buffer solution at 37 degC measured over 2 days; assay type: physicochemical; details: pH 8, 48 h
[3] = Half life in Han Wistar rat at 0.5 mg/kg, iv or 1 mg/kg, po; assay type: ADME, organism-based; details: in vivo
[4] = Volume of distribution at steady state in Han Wistar rat at 0.5 mg/kg, iv or 1 mg/kg, po; assay type: ADME, organism-based; details: in vivo, read-out: Vdss
[5] = Permeability from basolateral to apical side in human Caco2 cells; assay type: ADME, cell-based; details: for permeability: Caco-2
[6] = target: T1, Nuclear receptor ROR-beta (Homo sapiens, UniProt Q92753); assay: Displacement of [3H]ATRA from 6H-AVI-GST-TEV-human RORbeta (T221 to K470 residues) pre-incubated for 30 mins before [3H]ATRA addition and measurted ater 18 to 23 hrs by scintillation proximity assay
T1 sequence (Q92753 whole entry): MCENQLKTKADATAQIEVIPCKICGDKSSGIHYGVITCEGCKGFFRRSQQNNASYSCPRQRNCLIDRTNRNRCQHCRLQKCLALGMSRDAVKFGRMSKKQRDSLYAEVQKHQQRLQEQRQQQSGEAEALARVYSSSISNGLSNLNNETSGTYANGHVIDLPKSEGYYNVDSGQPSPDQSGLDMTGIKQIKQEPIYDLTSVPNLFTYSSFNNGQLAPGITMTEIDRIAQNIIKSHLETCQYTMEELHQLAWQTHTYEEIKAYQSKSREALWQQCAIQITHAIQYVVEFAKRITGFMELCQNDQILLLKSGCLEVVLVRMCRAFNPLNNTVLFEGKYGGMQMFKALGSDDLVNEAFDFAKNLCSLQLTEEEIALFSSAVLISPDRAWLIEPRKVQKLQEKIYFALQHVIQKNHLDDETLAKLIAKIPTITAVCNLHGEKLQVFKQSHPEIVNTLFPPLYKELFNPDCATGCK

[7] = Distribution coefficient between 1-octanol and aqueous phosphate buffer, logD of the compound in pH 7.4 buffer; assay type: physicochemical; details: 1-octanol/aqueous phosphate buffer
[8] = target: T2, Nuclear receptor ROR-gamma (Homo sapiens, UniProt P51449); assay: Inverse agonist activity at RORgammat in human TH17 cells assessed as inhibition of IL17 release incubated for 4 days by HTRF assay; assay type: cell-based
T2 sequence (P51449 whole entry): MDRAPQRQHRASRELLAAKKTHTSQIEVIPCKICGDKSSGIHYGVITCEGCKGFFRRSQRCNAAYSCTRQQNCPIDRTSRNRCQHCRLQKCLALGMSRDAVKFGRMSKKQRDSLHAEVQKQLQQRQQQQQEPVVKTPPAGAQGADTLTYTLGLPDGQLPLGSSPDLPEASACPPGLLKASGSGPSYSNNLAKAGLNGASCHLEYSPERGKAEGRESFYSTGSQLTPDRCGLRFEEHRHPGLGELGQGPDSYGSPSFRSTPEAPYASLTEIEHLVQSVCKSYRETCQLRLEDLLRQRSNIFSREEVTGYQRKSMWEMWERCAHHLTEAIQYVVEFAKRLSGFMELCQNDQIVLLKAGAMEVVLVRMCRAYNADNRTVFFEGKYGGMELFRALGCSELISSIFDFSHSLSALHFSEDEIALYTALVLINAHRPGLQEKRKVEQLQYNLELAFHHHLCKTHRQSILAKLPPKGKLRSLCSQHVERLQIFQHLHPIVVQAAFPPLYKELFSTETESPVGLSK

hERG (KCNH2) = hERG (KCNH2) (Homo sapiens, UniProt Q12809); assay: Inhibition of human ERG at 11 uM
[9] = Unbound fraction in human plasma by equilibrium dialysis; assay type: ADME, cell-free
[10] = target: T2, Nuclear receptor ROR-gamma
Description: Displacement of [3H]-2-(4-(ethylsulfonyl)phenyl)-N-(4-(2-(methoxymethyl)phenyl)thiophen-2-yl)acetamide from purified N-(HN)6-GST-TCS-human RORgammat (258 to 518 residues) incubated for 16 hrs by scintillation proximity assay

[11] = Stability in pH 7.4 buffer solution at 37 degC measured over 2 days; assay type: physicochemical; details: pH 7.4, 48 h
[12] = target: T2, Nuclear receptor ROR-gamma; remark: listed apart in the source
[13] = Intrinsic clearance in human hepatocytes assessed per million cells; assay type: ADME, cell-based, Hepatocyte; details: read-out: CLH
[14] = Intrinsic clearance in rat hepatocytes assessed per million cells; assay type: ADME, cell-based, Hepatocyte; details: read-out: CLH
[15] = target: T3, Nuclear receptor ROR-alpha (Homo sapiens, UniProt P35398); assay: Agonist activity at His6-tcs-human RORalpha LBD assessed as stimulation of biotinylated PGC1alpha (130 to 154 residues) peptide recruitment incubated for 1 hr by HTRF-FRET assay; details: read-out: IC50 (the source's name)
T3 sequence (P35398 whole entry): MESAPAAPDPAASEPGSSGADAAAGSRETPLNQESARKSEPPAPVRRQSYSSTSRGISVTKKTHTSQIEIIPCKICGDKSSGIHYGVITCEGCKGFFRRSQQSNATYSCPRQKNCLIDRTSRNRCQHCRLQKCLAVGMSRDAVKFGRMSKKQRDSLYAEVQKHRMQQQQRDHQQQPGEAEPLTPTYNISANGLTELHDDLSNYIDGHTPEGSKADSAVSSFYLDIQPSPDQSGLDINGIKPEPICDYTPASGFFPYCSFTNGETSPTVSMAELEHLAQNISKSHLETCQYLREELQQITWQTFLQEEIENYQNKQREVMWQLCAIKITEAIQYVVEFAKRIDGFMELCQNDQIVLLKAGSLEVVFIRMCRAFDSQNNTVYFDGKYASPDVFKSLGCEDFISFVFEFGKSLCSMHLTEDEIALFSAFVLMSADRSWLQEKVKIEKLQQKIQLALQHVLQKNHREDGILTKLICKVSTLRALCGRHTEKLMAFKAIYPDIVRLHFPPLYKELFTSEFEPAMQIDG

physchem = details: aqueous buffer, pH 7.4
Description: Solubility in aqueous buffer at pH 7.4

[16] = Efflux ratio of permeability in human Caco2 cells; assay type: ADME, cell-based; details: Caco-2
[17] = Oral bioavailability in Han Wistar rat at 1 mg/kg; assay type: ADME, organism-based; details: in vivo
[18] = Permeability from apical to basolateral side in human Caco2 cells; assay type: ADME, cell-based; details: for permeability: Caco-2
[19] = Stability in pH 5 buffer solution at 37 degC measured over 2 days; assay type: physicochemical; details: pH 5, 48 h
[20] = target: T3, Nuclear receptor ROR-alpha; assay: Inverse agonist activity at His6-tcs-human RORalpha LBD assessed as inhibition of biotinylated PGC1alpha (130 to 154 residues) peptide recruitment incubated for 1 hr by HTRF-FRET assay
[21] = Clearance in Han Wistar rat at 0.5 mg/kg, iv or 1 mg/kg, po; assay type: ADME, organism-based; details: in vivo
[22] = Cytotoxicity in human Th17 cells assessed as effect on cell viability by cell-titer-Glo luminescent cell viability assay relative to control; assay type: cell-based; details: read-out: Efficacy
[23] = Selectivity index, ratio of cytotoxicity in human Th17 cells to IC50 for inverse agonist activity at RORgammat in human TH17 cells assessed as inhibition of IL17 release; assay type: toxicity, cell-based
Homo sapiens = assay: Reduction in psoriasis-severity index in psoriasis patient dosed orally during phase 2a study; assay type: functional; design: scale not given: the % may be the effect or the level left

hERG (KCNH2), sequence (Q12809 whole entry): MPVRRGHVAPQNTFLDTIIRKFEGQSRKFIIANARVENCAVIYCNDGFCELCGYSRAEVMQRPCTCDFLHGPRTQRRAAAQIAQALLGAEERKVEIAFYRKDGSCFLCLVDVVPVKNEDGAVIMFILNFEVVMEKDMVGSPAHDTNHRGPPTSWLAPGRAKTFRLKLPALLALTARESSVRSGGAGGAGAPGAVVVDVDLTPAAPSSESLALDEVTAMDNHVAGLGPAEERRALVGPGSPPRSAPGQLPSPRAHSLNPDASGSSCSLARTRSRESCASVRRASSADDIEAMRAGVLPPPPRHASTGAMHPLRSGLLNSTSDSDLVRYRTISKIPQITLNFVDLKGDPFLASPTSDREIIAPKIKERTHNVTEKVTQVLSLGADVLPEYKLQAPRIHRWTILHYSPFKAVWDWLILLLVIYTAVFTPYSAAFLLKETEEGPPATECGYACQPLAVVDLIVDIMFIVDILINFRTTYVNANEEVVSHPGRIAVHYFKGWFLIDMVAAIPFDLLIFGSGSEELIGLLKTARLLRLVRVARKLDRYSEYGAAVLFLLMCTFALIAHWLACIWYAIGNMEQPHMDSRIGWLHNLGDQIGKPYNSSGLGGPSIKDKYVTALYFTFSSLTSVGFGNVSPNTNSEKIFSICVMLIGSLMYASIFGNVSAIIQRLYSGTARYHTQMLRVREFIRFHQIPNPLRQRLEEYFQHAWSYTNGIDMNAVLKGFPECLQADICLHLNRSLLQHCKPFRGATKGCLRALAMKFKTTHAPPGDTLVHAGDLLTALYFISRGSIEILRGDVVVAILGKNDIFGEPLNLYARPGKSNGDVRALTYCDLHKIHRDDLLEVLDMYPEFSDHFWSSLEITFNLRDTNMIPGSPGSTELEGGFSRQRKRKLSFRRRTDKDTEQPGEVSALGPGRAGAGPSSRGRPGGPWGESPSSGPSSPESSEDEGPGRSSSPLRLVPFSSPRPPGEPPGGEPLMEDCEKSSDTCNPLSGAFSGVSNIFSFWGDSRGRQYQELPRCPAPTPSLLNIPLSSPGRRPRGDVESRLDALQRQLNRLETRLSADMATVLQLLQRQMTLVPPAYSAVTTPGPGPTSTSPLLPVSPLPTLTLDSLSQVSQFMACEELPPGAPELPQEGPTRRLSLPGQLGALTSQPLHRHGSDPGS

In the case of `CCS(=O)(=O)c1ccc([C@@H](NC(C)=O)C(=O)Nc2cc(-c3cccnc3OCc3ccc(OC(F)(F)F)cc3)cs2)cc1`, the Fa [1] is reported as < 1.2%, the Stability [2] is reported as “Stable” and the half-life [3] is reported as 4.3 h. The Vd [4] was 2.4 L/kg, the Papp B→A ([5]; Caco-2, read-out: permeability) was 42 ×10⁻⁶ cm/s and the IC50 [6] was > 10000 nM. The logD [7] was 4.7, the IC50 [8] was 11 nM and the inhibition at 11 µM (hERG (KCNH2)) was 8%. The fraction unbound [9] was 0.001, the IC50 [10] was 3 nM and the Stability [11] was “Stable”. It also gave an IC50 [12] of 34 nM, a hepatocyte CLint [13] of 8.5 µL/min/1e6 cells and a hepatocyte CLint [14] of 8.9 to 12 µL/min/1e6 cells. The EC50 [15] was > 33000 nM, the solubility (physchem) was 0.3 µM (≈ 0.19 µg/mL) and the efflux ratio [16] was > 1500. The bioavailability [17] was < 1%, the Papp A→B ([18]; Caco-2, read-out: permeability) was < 0.001 ×10⁻⁶ cm/s and the Stability [19] was “Stable”. It also gave an IC50 [20] of 9400 nM and a clearance [21] of 12 mL/min/kg.
With `CCS(=O)(=O)c1ccc(C(NC(C)=O)C(=O)Nc2cc(-c3cc(C#N)cnc3OCC(F)(F)F)cs2)cc1` (centres undefined) the IC50 [6] was > 10000 nM, the logD [7] was 3.7 and the IC50 [8] was 49 nM. It also gave an inhibition at 11 µM (hERG (KCNH2)) of 3%, a fraction unbound [9] of 0.002 and an IC50 [10] of 7 nM. The IC50 [12] was 72 nM, the hepatocyte CLint [14] was < 1 µL/min/1e6 cells and the EC50 [15] was > 33000 nM. For the same compound, the solubility (physchem) was 3.6 µM (≈ 2.04 µg/mL) and the IC50 [20] was 600 nM.
In the case of `CCS(=O)(=O)c1ccc(CC(=O)Nc2cc(-c3cccnc3OCc3ccc(OC(F)(F)F)cc3)cs2)cc1`, the Emax [22] is reported as 40%, the Fa [1] is reported as 30% and the half-life [3] is reported as 1.4 h. The Vd [4] was 3.8 L/kg, the permeability [5] was “Impermeable” and the IC50 [6] was > 10000 nM. For the same compound, the IC50 [8] was 25 nM, the inhibition at 11 µM (hERG (KCNH2)) was 0% and the fraction unbound [9] was < 0.0002. For the same compound, the IC50 [10] was 7 nM, the IC50 [12] was 30 nM and the hepatocyte CLint [13] was 8.6 µL/min/1e6 cells. For the same compound, the hepatocyte CLint [14] was 40 µL/min/1e6 cells, the EC50 [15] was > 33000 nM and the solubility (physchem) was 0.7 µM (≈ 0.404 µg/mL). For the same compound, the Ratio [16] was “Impermeable”, the bioavailability [17] was 10% and the permeability [18] was “Impermeable”. For the same compound, the selectivity ratio [23] was 100, the IC50 [20] was > 33000 nM and the clearance [21] was 46.5 mL/min/kg.
Compound `CCS(=O)(=O)c1ccc(CC(=O)Nc2cc(-c3cc(C#N)cnc3OCC(F)(F)F)cs2)cc1` has a Fa [1] of 36%, a half-life [3] of 4.4 h and a Vd [4] of 0.23 L/kg. For the same compound, the permeability [5] was “Impermeable”, the IC50 [8] was 65 nM and the inhibition at 11 µM (hERG (KCNH2)) was 47%. The fraction unbound [9] was 0.0006, the IC50 [10] was 2 nM and the IC50 [12] was 30 nM. For the same compound, the hepatocyte CLint [13] was 5.9 µL/min/1e6 cells, the hepatocyte CLint [14] was 7.5 µL/min/1e6 cells and the EC50 [15] was > 33000 nM. For the same compound, the solubility (physchem) was 0.2 µM (≈ 0.102 µg/mL), the Ratio [16] was “Impermeable” and the bioavailability [17] was 36%. The permeability [18] was “Impermeable”, the IC50 [20] was 6200 nM and the clearance [21] was 0.8 mL/min/kg.
With `CCS(=O)(=O)c1ccc([C@H](NC(C)=O)C(=O)Nc2cc(-c3cccnc3OCc3ccc(OC(F)(F)F)cc3)cs2)cc1` the Stability [2] was “Stable”, the logD [7] was 4.7 and the IC50 [8] was 23 nM. For the same compound, the IC50 [10] was 270 nM, the Stability [11] was “Stable” and the IC50 [12] was 3530 nM. The hepatocyte CLint [14] was 18 µL/min/1e6 cells and the Stability [19] was “Stable”.
Compound `CCS(=O)(=O)c1ccc(CC(=O)Nc2cc(-c3cccnc3Oc3ccc(OC(F)(F)F)cc3)cs2)cc1` has a Fa [1] of 67%, a half-life [3] of 1.6 h and a Vd [4] of 2.8 L/kg. The permeability [5] was “Impermeable”, the IC50 [8] was 144 nM and the inhibition at 11 µM (hERG (KCNH2)) was 14%. For the same compound, the fraction unbound [9] was < 0.001, the IC50 [10] was 33 nM and the hepatocyte CLint [13] was 11.9 µL/min/1e6 cells. The hepatocyte CLint [14] was 20 µL/min/1e6 cells, the EC50 [15] was > 33000 nM and the solubility (physchem) was 2.5 µM (≈ 1.41 µg/mL). The Ratio [16] was “Impermeable”, the bioavailability [17] was 45% and the permeability [18] was “Impermeable”. For the same compound, the IC50 [20] was > 33000 nM and the clearance [21] was 24 mL/min/kg.
Compound `CCS(=O)(=O)c1ccc(CNC(=O)c2cnc3c(c2)CN(C[C@H]2CC[C@H](C(F)(F)F)CC2)[C@H]3C(C)C)nc1` has an Activity (Homo sapiens) of 24%.
